According to patent US9890176B2, “Mannose derivatives for treating bacterial infections” (Vertex Pharmaceuticals Incorporated, priority 2013, dated 2018):

System: bacterial strain LF82 binding to the glycoprotein BSA-(Mannose)3
Assay: Bacterial Binding Assay (BBA)
Type: cell-based, Escherichia coli
Details: read-out: Bacterial Binding Assay IC50
Outline: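 Luciferase-tagged E. coli LF82 grown overnight at 37° C without shaking, then added at 2×10^8 bacteria/mL (10^7 per well) to wells coated with 0.5-2 μg/mL BSA-(Man)3 and blocked with 2% BSA. Compound in 0.2% BSA/D-PBS; binding 40-75 min at room temperature. Washed; bound bacteria read by luciferase luminescence; IC50.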

Structure (SMILES): CNC(=O)c1cccc(-c2ccc(O[C@H]3O[C@H](CO)[C@@H](O)[C@H](O)[C@@]3(O)CN=[N+]=[N-])c(C)c2)c1 [Compound 38]
- IC50: 105 ± 5 nM

Structure (SMILES): COc1cc(Cl)ccc1-c1ccc(O[C@H]2O[C@H](CO)[C@@H](O)[C@H](O)[C@]2(C)O)c(C)c1 [Compound 81]
- IC50: 185 ± 15 nM

Structure (SMILES): Cc1cc(-c2ccc(F)cc2F)ccc1O[C@H]1O[C@H](CO)[C@@H](O)[C@H](O)[C@]1(C)O [Compound 75]
- IC50: 38 ± 18 nM

Structure (SMILES): COC(=O)c1cccc(-c2ccc(O[C@H]3O[C@H](CO)[C@@H](O)[C@H](O)[C@]3(C)O)c(C)c2)c1 [Compound 57]
- IC50: 17 ± 4 nM

Structure (SMILES): CCc1cc(-c2ccc(O[C@H]3O[C@H](CO)[C@@H](O)[C@H](O)[C@]3(C)O)c(CC)c2)ccc1O[C@H]1O[C@H](CO)[C@@H](O)[C@H](O)[C@]1(C)O [Example 110, (2R,3S,4S,5S,6R)-2-[2-ethyl-4-[3-ethyl-4-[(2R,3S,4S,5S,6R)-3,4,5-trihydroxy-6-(hydroxymethyl)-3-methyl-tetrahydropyran-2-yl]oxy-phenyl]phenoxy]-6-(hydroxymethyl)-3-methyl-tetrahydropyran-3,4,5-triol]
- IC50: 3 ± 1 nM

Structure (SMILES): CNC(=O)c1cccc(-c2ccc(O[C@H]3O[C@H]([C@@H](O)C(C)C)[C@@H](O)[C@H](O)[C@@H]3O)c(C)c2)c1 [Compound 30]
- IC50: > 10000 nM

Structure (SMILES): COc1cc(F)ccc1-c1ccc(O[C@H]2O[C@H](CO)[C@@H](O)[C@H](O)[C@]2(C)O)c(C)c1 [Compound 91]
- IC50: 92 ± 27 nM

Structure (SMILES): C[C@@]1(O)[C@@H](Oc2ccc(-c3ccc(O[C@H]4O[C@H](CO)[C@@H](O)[C@H](O)[C@]4(C)O)cc3)cc2)O[C@H](CO)[C@@H](O)[C@@H]1O [Example 106, (2R,3S,4S,5S,6R)-6-(hydroxymethyl)-3-methyl-2-[4-[4-[(2R,3S,4S,5S,6R)-3,4,5-trihydroxy-6-(hydroxymethyl)-3-methyl-tetrahydropyran-2-yl]oxyphenyl]phenoxy]tetrahydropyran-3,4,5-triol]
- IC50: 435 ± 115 nM

Structure (SMILES): Cc1cc(-c2cccc(C(=O)NC(CO)(CO)CO)c2)ccc1O[C@H]1O[C@H](CO)[C@@H](O)[C@H](O)[C@]1(C)O [Compound 60]
- IC50: 16 ± 0.5 nM

Structure (SMILES): Cc1cc(-c2ccc(O[C@H]3O[C@H](CO)[C@@H](O)[C@H](O)[C@]3(C)O)c(C)c2)ccc1F [Compound 87]
- IC50: 87 ± 33 nM

Structure (SMILES): CNC(=O)c1cccc(-c2ccc3c(c2)CC[C@]2(O3)O[C@H](CO)[C@@H](O)[C@H](O)[C@@H]2O)c1 [compound 33]
- IC50: 27 ± 8 nM

Structure (SMILES): COc1cc(Cl)cc(-c2ccc(O[C@H]3O[C@H](CO)[C@@H](O)[C@H](O)[C@]3(C)O)c(C)c2)c1 [Compound 80]
- IC50: 55 ± 15 nM

Structure (SMILES): Cc1cc(-c2ccc(O[C@H]3O[C@H](CO)[C@@H](O)[C@H](O)[C@]3(C)O)c(C)c2)ccc1O[C@H]1O[C@H](CO)[C@@H](O)[C@H](O)[C@]1(C)O [Compound 105, (2R,3S,4S,5S,6R)-6-(hydroxymethyl)-3-methyl-2-[2-methyl-4-[3-methyl-4-[(2R,3S,4S,5S,6R)-3,4,5-trihydroxy-6-(hydroxymethyl)-3-methyl-tetrahydropyran-2-yl]oxy-phenyl]phenoxy]tetrahydropyran-3,4,5-triol]
- IC50: 6 ± 2 nM

Structure (SMILES): COc1c(F)cccc1-c1ccc(O[C@H]2O[C@H](CO)[C@@H](O)[C@H](O)[C@]2(C)O)c(C)c1 [Compound 90]
- IC50: 83 ± 3 nM

Structure (SMILES): OC[C@H]1O[C@@]2(CCc3cc(-c4ccc5c(c4)CC[C@]4(O5)O[C@H](CO)[C@@H](O)[C@H](O)[C@@H]4O)ccc3O2)[C@@H](O)[C@@H](O)[C@@H]1O [Example 126, (2R,3′S,4′S,5′S,6′R)-6′-(hydroxymethyl)-6-[(2R,3′S,4′S,5′S,6′R)-3′,4′,5′-trihydroxy-6′-(hydroxymethyl)spiro[chromane-2,2′-tetrahydropyran]-6-yl]spiro[chromane-2,2′-tetrahydropyran]-3′,4′,5′-triol]
- IC50: 8 nM

Structure (SMILES): Cc1cc(-c2cccc(C(=O)N3CCCC3)c2)ccc1O[C@H]1O[C@H](CO)[C@@H](O)[C@H](O)[C@]1(C)O [Compound 70]
- IC50: 30 ± 1 nM

Structure (SMILES): C[C@@]1(O)[C@@H](Oc2ccc(-c3ccc(O[C@H]4O[C@H](CO)[C@@H](O)[C@H](O)[C@]4(C)O)c(Cl)c3)cc2Cl)O[C@H](CO)[C@@H](O)[C@@H]1O [Example 107, (2R,3S,4S,5S,6R)-2-[2-chloro-4-[3-chloro-4-[(2R,3S,4S,5S,6R)-3,4,5-trihydroxy-6-(hydroxymethyl)-3-methyl-tetrahydropyran-2-yl]oxy-phenyl]phenoxy]-6-(hydroxymethyl)-3-methyl-tetrahydropyran-3,4,5-triol]
- IC50: 5 ± 1 nM

Structure (SMILES): COc1ccc(Cl)cc1-c1ccc(O[C@H]2O[C@H](CO)[C@@H](O)[C@H](O)[C@]2(C)O)c(C)c1 [Compound 97]
- IC50: 110 ± 20 nM

Structure (SMILES): COc1cc(OC)cc(-c2ccc(O[C@H]3O[C@H](CO)[C@@H](O)[C@H](O)[C@]3(C)O)c(C)c2)c1 [Compound 94]
- IC50: 16 ± 6 nM

Structure (SMILES): CNC(=O)c1cccc(-c2ccc(O[C@H]3O[C@H](CO)[C@@H](O)[C@H](O)[C@]3(C)O)c(F)c2)c1 [Example 16, 3-[3-fluoro-4-[(2R,3S,4S,5S,6R)-3,4,5-trihydroxy-6-(hydroxymethyl)-3-methyl-tetrahydropyran-2-yl]oxy-phenyl]-N-methyl-benzamide]
- IC50: 67 ± 18 nM

Structure (SMILES): CNC(=O)c1cccc(-c2ccc(O[C@H]3O[C@H](CO)[C@@H](O)[C@H](O)[C@]3(C)O)cc2)c1 [Example 14, N-methyl-3-[4-[(2R,3S,4S,5S,6R)-3,4,5-trihydroxy-6-(hydroxymethyl)-3-methyl-tetrahydropyran-2-yl]oxyphenyl]benzamide]
- IC50: 132 ± 44 nM

Structure (SMILES): Cc1cc(-c2ccc3cc[nH]c3c2)ccc1O[C@H]1O[C@H](CO)[C@@H](O)[C@H](O)[C@]1(C)O [Compound 89]
- IC50: 455 ± 95 nM

Structure (SMILES): C[C@@]1(O)[C@@H](Oc2ccc(-c3ccc(O[C@H]4O[C@H](CO)[C@@H](O)[C@H](O)[C@]4(C)O)c(C#N)c3)cc2C#N)O[C@H](CO)[C@@H](O)[C@@H]1O [Example 111, 5-[3-cyano-4-[(2R,3S,4S,5S,6R)-3,4,5-trihydroxy-6-(hydroxymethyl)-3-methyl-tetrahydropyran-2-yl]oxy-phenyl]-2-[(2R,3S,4S,5S,6R)-3,4,5-trihydroxy-6-(hydroxymethyl)-3-methyl-tetrahydropyran-2-yl]oxy-benzonitrile]
- IC50: 6 ± 2 nM

Structure (SMILES): COc1c(F)cc(F)cc1-c1ccc(O[C@H]2O[C@H](CO)[C@@H](O)[C@H](O)[C@]2(C)O)c(C)c1 [Compound 99]
- IC50: 38 ± 8 nM

Structure (SMILES): Cc1cc(-c2cccc(C(=O)N[C@@H](CO)[C@H](C)O)c2)ccc1O[C@H]1O[C@H](CO)[C@@H](O)[C@H](O)[C@]1(C)O [Compound 59]
- IC50: 20 ± 4 nM

Structure (SMILES): CNC(=O)c1cccc(-c2ccc(O[C@H]3O[C@H]([C@@H](C)O)[C@@H](O)[C@H](O)[C@@H]3O)c(C)c2)c1 [compound 29]
- IC50: > 10000 nM

Structure (SMILES): O=[N+]([O-])c1cccc(-c2ccc3c(c2)CC[C@]2(O3)O[C@H](CO)[C@@H](O)[C@H](O)[C@@H]2O)c1 [Compound 34]
- IC50: 79 ± 31 nM

Structure (SMILES): CNC(=O)c1cccc(-c2ccc(O[C@H]3O[C@H](CO)[C@@H](O)[C@H](O)[C@]3(C)O)cc2F)c1 [Compound 39]
- IC50: 265 ± 135 nM

Structure (SMILES): C[C@@]1(O)[C@@H](OCc2ccccc2)O[C@H](CO)[C@@H](O)[C@@H]1O [Compound 37]
- IC50: > 10000 nM

Structure (SMILES): Cc1cc(-c2cc(F)cc(Cl)c2)ccc1O[C@H]1O[C@H](CO)[C@@H](O)[C@H](O)[C@]1(C)O [Compound 78]
- IC50: 94 ± 6 nM

Structure (SMILES): CNC(=O)c1cccc(-c2ccc(O[C@H]3O[C@H](CO)[C@@H](O)[C@H](O)[C@@]3(O)COCCOCc3ccccc3)c(C)c2)c1 [Compound 49]
- IC50: 280 ± 20 nM

Structure (SMILES): CNC(=O)c1cccc(-c2ccc(O[C@H]3O[C@H](CO)[C@@H](O)[C@H](O)[C@@]3(O)CO)c(C)c2)c1 [Compound 24]
- IC50: 19 ± 3 nM

Structure (SMILES): CC[C@H](O)[C@H]1O[C@H](Oc2ccc(-c3cccc(C(=O)NC)c3)cc2C)[C@@H](O)[C@@H](O)[C@@H]1O [Compound 31]
- IC50: > 10000 nM

Structure (SMILES): CNC(=O)c1cccc(-c2ccc(O[C@H]3O[C@H](CO)[C@@H](O)[C@H](O)[C@]3(C)O)cc2Cl)c1 [Compound 40]
- IC50: 220 ± 110 nM

Structure (SMILES): Cc1cc(-c2cccc(C(=O)N[C@@H](CO)C(=O)O)c2)ccc1O[C@H]1O[C@H](CO)[C@@H](O)[C@H](O)[C@]1(C)O [Compound 69]
- IC50: 30 ± 12 nM

Structure (SMILES): Cc1cc(-c2cc(-c3ccc(O[C@H]4O[C@H](CO)[C@@H](O)[C@H](O)[C@]4(C)O)c(C)c3)cc(-c3ccc(O[C@H]4O[C@H](CO)[C@@H](O)[C@H](O)[C@]4(C)O)c(C)c3)c2)ccc1O[C@H]1O[C@H](CO)[C@@H](O)[C@H](O)[C@]1(C)O [Example 118, (2R,3S,4S,5S,6R)-2-[4-[3,5-bis[3-methyl-4-[(2R,3S,4S,5S,6R)-3,4,5-trihydroxy-6-(hydroxymethyl)-3-methyl-tetrahydropyran-2-yl]oxy-phenyl]phenyl]-2-methyl-phenoxy]-6-(hydroxymethyl)-3-methyl-tetrahydropyran-3,4,5-triol]
- IC50: 2 ± 0.7 nM

Structure (SMILES): Cc1cc(-c2cccc(C(=O)NCC3CCN(C(=O)OC(C)(C)C)CC3)c2)ccc1O[C@H]1O[C@H](CO)[C@@H](O)[C@H](O)[C@]1(C)O [Compound 66]
- IC50: 11 ± 3 nM

Structure (SMILES): Cc1cc(-c2cc(Cl)ccc2F)ccc1O[C@H]1O[C@H](CO)[C@@H](O)[C@H](O)[C@]1(C)O [Compound 77]
- IC50: 150 nM

Structure (SMILES): CNC(=O)c1ccc(-c2ccc(Cl)c(O[C@H]3O[C@H](CO)[C@@H](O)[C@H](O)[C@]3(C)O)c2)cc1 [Compound 45]
- IC50: 116 ± 34 nM
